From patent publication US8809328B2, “Imidazole derivative” (National University Corporation Shizuoka University, priority 2011, dated 2014) come the findings set out here.

Type in all cases: in vivo
The test system of assay [1] is rice (Nipponbare) (Oryza sativa L. cv. Nipponbare). As to the kind of experiment: Influence of AOH and 3-methyl-AOH on rice seedlings in test tube culture fluid (Example 12). The following applies: 0.2 mM in culture fluid, 28° C., one week. The protocol: Sterilized seeds of rice (Nipponbare) (Oryza sativa L. cv. Nipponbare) were allowed to sprout at 28° C. in three days. The sprouted seeds (four seeds per test tube) were cultivated in a test tube, in which a control culture fluid, a culture fluid to which 0.2 mM of AOH was added, or a culture fluid to which 0.2 mM of 3-methyl-AOH was added and was placed, at 28° C. for a week. The control culture fluid comprises 0.5 mM of NH4NO3, 0.3 mM of Na2HPO4, 0.15 mM of K2SO4, 0.2 mM of MgCl2, 0.1 mM of CaCl2, 23 μM of Fe-ethylenediaminetetraacetic acid (Fe-EDTA), 25 μM of H3BO3, 4.5 μM of MnSO4, 0.15 μM of CuSO4, 0.35 μM of ZnSO4, and 0.05 μM of Na2MoO4. The culture fluid was replaced with new culture fluid every other day. After cultivation, the length of shoots and roots was measured. […] (In FIG. 8, “*” indicates P value <0.05, and “**” indicates P value <0.01. n=16.). In contrast, 3-methyl-AOH gave no influence on extension of the shoots.

The test system of assay [2] is Zoysiagrass (Agrostis stolonifera). As to the kind of experiment: Zoysiagrass cultivated on agar medium added with AHX. Particulars: agar medium with 1 mM AHX, 30 days, vs control section.
The subject of assay [3] is Rice (Oryza sativa). As to the kind of experiment: Rice cultivated in culture fluid added with AHX. The following applies: culture fluid with 0.2 mM AHX, 14 days, vs control section.
The subject of assay [4] is rice (Nipponbare) (Oryza sativa L. cv. Nipponbare). Nature of the assay: Influence of AHX or AOH on rice seedlings in test tube culture fluid (Example 6). The following applies: 50, 200 or 1000 μM in culture fluid, 28° C., one week, FIG. 4. The protocol: Sterilized seeds of rice (Nipponbare) (Oryza sativa L. cv. Nipponbare) were allowed to sprout at 28° C. in three days. The sprouted seeds (four seeds per test tube) were cultivated in a test tube, in which a control culture fluid or a culture fluid to which AHX or AOH was added to different concentrations and was placed, at 28° C. for a week. AOH that was produced according to the method of Example 5 was used. The control culture fluid comprises 0.5 mM of NH4NO3, 0.3 mM of Na2HPO4, 0.15 mM of K2SO4, 0.2 mM of MgCl2, 0.1 mM of CaCl2, 23 μM of Fe-ethylenediaminetetraacetic acid (Fe-EDTA), 25 μM of H3BO3, 4.5 μM of MnSO4, 0.15 μM of CuSO4, 0.35 μM of ZnSO4, and 0.05 μM of Na2MoO4. As for the culture fluids containing AHX or AOH, AHX or AOH is added to the above described control culture fluids such that the final concentration becomes 50 μM, 200 μM or 1000 μM. The culture fluid was replaced with new culture fluid every other day. After cultivation, the length of shoots and roots was measured.

In the case of `Cn1nnc2[nH]c(=O)[nH]c2c1=O` [3-methyl-AOH, 3-methyl-3H-imidazo[4,5-d][1,2,3]triazin-4,6(5H,7H)-dione], in assay [1], the Extension of shoots result is “no influence”. For the same compound, in assay [1] (FIG. 8), the Extension of roots entry is “had extension activity for roots”.

On to `O=c1[nH]nnc2[nH]cnc12` [AHX, 7H-imidazo[4,5-d][1,2,3]triazin-4(3H)-one], for which the Extension of shoots result in assay [2] and in assay [3] was “clearly promoted” throughout. In assay [4], the “Extension of shoots and roots” value was “promoted extension of shoots and roots concentration-dependently”.
